# PubChem BioAssay AID743016 (Vanderbilt Specialized Chemistry Center, 2013)
# Target: Mas-related G-protein coupled receptor member X1 (Homo sapiens) (UniProt Q96LB2)
# Experiment: enhancers of MrgX1 receptor signaling – cell-based, HEK293, calcium flux, BAM8-22, dose response (AID 743016)
# Conditions: HEK293-MrgX1, Fluo4 calcium flux, BAM8-22 potentiation; with BAM 0.1 µM
# Chain of Mas-related G-protein coupled receptor member X1 (Homo sapiens) (Q96LB2 whole entry, looked up): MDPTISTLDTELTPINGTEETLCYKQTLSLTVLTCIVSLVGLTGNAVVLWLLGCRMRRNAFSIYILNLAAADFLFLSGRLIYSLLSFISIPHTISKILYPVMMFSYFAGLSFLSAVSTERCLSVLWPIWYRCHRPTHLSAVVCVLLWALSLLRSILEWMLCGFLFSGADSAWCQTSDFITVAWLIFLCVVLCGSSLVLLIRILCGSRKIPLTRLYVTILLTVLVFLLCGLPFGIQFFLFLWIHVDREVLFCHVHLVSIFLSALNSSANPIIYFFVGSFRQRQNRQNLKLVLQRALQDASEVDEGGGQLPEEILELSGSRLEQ
row,Compound,EC50 [nM]
1,COC(=O)c1ccccc1NC(=O)c1ccccc1N(C)S(C)(=O)=O,1570
2,CSc1ccccc1NC(=O)c1ccccc1N(C)S(C)(=O)=O,500
3,COc1ccccc1NC(=O)c1ccccc1NS(C)(=O)=O,3060
4,COc1ccc(C)cc1NC(=O)c1ccccc1NS(C)(=O)=O,2340
5,CCOc1ccccc1NC(=O)c1ccccc1NS(=O)(=O)C(C)C,1820
6,COc1ccc(NC(=O)c2ccccc2NS(=O)(=O)c2cccnc2Cl)c(OC)c1,2910
7,COc1ccc(NC(=O)c2ccccc2NS(C)(=O)=O)c(OC)c1,150
8,CCOc1ccccc1NC(=O)c1ccccc1NS(=O)(=O)CC,910
9,CCOc1ccccc1NC(=O)c1ccccc1NS(=O)(=O)CC1CC1,4470

# More lines, in order of falling EC50, values ahead:
row,EC50 [nM],Compound
1,1910,CCOc1ccccc1NC(=O)c1ccccc1NS(C)(=O)=O
2,1390,CCOc1ccccc1NC(=O)c1ccccc1N(C)S(C)(=O)=O
3,1010,COc1ccc(Cl)cc1NC(=O)c1ccccc1NS(C)(=O)=O
4,420,CSc1ccccc1NC(=O)c1ccccc1NS(C)(=O)=O
5,380,CCOc1ccccc1NC(=O)c1ccccc1NS(=O)(=O)CCCl
6,190,CCOc1ccccc1NC(=O)c1ccccc1NS(=O)(=O)C1CC1
